Values of other authors, collected in patent US20230414599A1, “NICOTINAMIDE, NICOTINAMIDE PRECURSORS AND NICOTINAMIDE METABOLITES AND COMPOSITIONS THEREOF FOR REDUCING THE TIME TO RESOLUTION OF SYMPTOMS IN PATIENTS WITH COVID-19 AND OTHER VIRAL INFECTIONS” (CONARIS RESEARCH INSTITUTE AG, priority 2020, published 2023).

Tested on: COVID-19
Details: patients with mild or moderate COVID-19; interim analysis; cited from earlier work

## CC(C)C(=O)OC[C@H]1O[C@@H](n2ccc(NO)nc2=O)[C@H](O)[C@@H]1O [molnupiravir]
  Reduction of the risk of hospitalization or death compared to placebo: approximately 50%
